Reference: PubChem BioAssay (NCI)
Values joined by “and” are separate entries in the source; they are usually repeats but may differ in a detail not shown here. Equal entries are not always repeated.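 Grown in 96-well plates, cells were treated for 48 hours with each compound at five concentrations. Insufficient inhibition: endpoint recorded as highest concentration tested. Abbreviation: GI50, concentration required for 50% inhibition of growth. TGI: total growth inhibition.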 Where a SMILES comes first, the peptide text is derived from it. The star is where a group is joined. Cbz = O=C(OCc1ccccc1)*

How the values were obtained:
Experiment in all cases: inhibition of tumour cell growth, NCI panel, 48 h
NCI-H522 lung = tested on: NCI-H522 lung
T-47D breast = tested on: T-47D breast
OVCAR-8 ovarian = tested on: OVCAR-8 ovarian
NCI-H460 lung = tested on: NCI-H460 lung
MALME-3M melanoma = tested on: MALME-3M melanoma
HOP-92 NSCLC = tested on: HOP-92 NSCLC
MDA-N = tested on: MDA-N
U251 CNS = tested on: U251 CNS
PC-3 prostate = tested on: PC-3 prostate
SNB-19 CNS = tested on: SNB-19 CNS
OVCAR-4 ovarian = tested on: OVCAR-4 ovarian
HCT-15 colon = tested on: HCT-15 colon

Row | SMILES | TGI (NCI-H522 lung) | TGI (T-47D breast) | TGI (OVCAR-8 ovarian) | TGI (NCI-H460 lung) | TGI (MALME-3M melanoma) [µM] | TGI (HOP-92 NSCLC) [µM] | TGI (MDA-N) | TGI (U251 CNS) [µM] | TGI (PC-3 prostate) | TGI (SNB-19 CNS) | TGI (OVCAR-4 ovarian) [µM] | TGI (HCT-15 colon) [µM] | GI50 (NCI-H522 lung) [µM] | GI50 (T-47D breast) [µM] | GI50 (OVCAR-8 ovarian) [µM] | GI50 (NCI-H460 lung) [µM] | GI50 (MDA-N) [µM] | GI50 (PC-3 prostate) [µM] | GI50 (SNB-19 CNS) [µM]
1 | CC(=O)SC(C[N+](=O)[O-])c1ccc2c(c1)OCO2 (centres undefined) | 10.4 µM | 65.7 µM | 28.1 µM | 26.2 µM | 15.8 | 34.6 | 4.64 µM | 13 | 28.9 µM | 21.5 µM | 23.1 | 11.1 | – | – | – | – | – | – | –
2 | CC(=O)NC1C(Sc2ncn(C3OC(CO)C(O)C(O)C3NC(C)=O)n2)OC(CO)C(O)C1O (centres undefined) | > 100 µM | > 100 µM | > 100 µM | > 100 µM | > 100 | > 100 | > 100 µM | > 100 | > 100 µM | > 100 µM | > 100 | > 100 | – | – | – | – | – | – | –
3 | CC(=O)c1c(N=[N+]=[N-])c2cccc3c2n(c1=O)CCC3 | 28.1 µM | 60.4 µM | 16.1 µM | 35.1 µM | 27.6 | 67.7 | 44.5 µM | 31.6 | 38.6 µM | > 100 µM | 52.3 | 47.4 | – | – | – | – | – | – | –
4 | Cc1ccc2c(c1)CC1(Cc3cccc(C)c3C1=O)C2=O (centres undefined) | > 100 µM | > 10 µM | > 100 µM | > 100 µM | > 100 | > 100 | > 10 µM | > 100 | > 100 µM | – | > 100 | > 100 | – | – | – | – | – | – | –
5 | CC(=O)c1ccc2c(c1)C(=O)c1sc(C(C)=O)cc1C2=O | 1.7 µM and 0.585 µM | 3.01 µM and 4.31 µM | 1.69 µM and 2.67 µM | 7.31 µM and 11 µM | 1.2 | 50 | 2.02 µM and 3.38 µM | 50 | 7.12 µM and 11.3 µM | 1.66 µM and 2.61 µM | – | 2.18 | 0.222 | 1.73 | 0.587 | 0.362 | 0.316 | 2.55 | 1.34
6 | O=[N+]([O-])c1c(F)c(F)c2c(c1F)N(CCCCCl)c1ccccc1S2 | 12.3 µM | 27.7 µM | 11.3 µM | 9.91 µM | 31.4 | 39 | 28.9 µM | 25.3 | 12.7 µM | 19.5 µM | 21.2 | 3.31 | – | – | – | – | – | – | –
7 | O=c1[nH]nc(Cc2ccc(Cl)cc2)n1/N=C/c1cccs1 | 68.8 µM | > 100 µM | > 100 µM | > 100 µM | > 100 | 64.2 | > 100 µM | > 100 | > 100 µM | 64 µM | > 100 | > 100 | – | – | – | – | – | – | –
8 | CS(=O)(=O)N1CC(CCl)c2ccc(O)cc21 (centres undefined) | 5.8 µM | 48.2 µM | 7.33 µM | 11.3 µM | 5 | 9.05 | 3.54 µM | 10.3 | 5.88 µM | – | 9.9 | 18.6 | – | – | – | – | – | – | –
9 | CCCCCCCCCCCC(=O)OC[C@@H](C[As](=O)(O)O)OC(=O)CCCCCCCCCCC | 6.5 µM | 37.7 µM | 23.6 µM | 11.1 µM | 8.84 | 4.44 | 15 µM | 4.42 | 8.14 µM | 10.8 µM | 29.1 | 24.1 | – | – | – | – | – | – | –
10 | CC(NC(=O)Cc1ccccc1)NC(=O)C(C)C(=O)NCc1ccccc1 (centres undefined) | > 100 µM | > 100 µM | > 100 µM | > 100 µM | > 100 | 88.8 | > 100 µM | > 100 | > 100 µM | 58.8 µM | > 100 | > 100 | – | – | – | – | – | – | –
11 | CC1(C)O[C@H]2OC(CO)C(N=[N+]=[N-])[C@H]2O1 (some centres undefined) | > 100 µM | > 100 µM | > 100 µM | > 100 µM | > 100 | > 100 | > 100 µM | > 100 | > 100 µM | > 100 µM | > 100 | > 100 | – | – | – | – | – | – | –
12 | CC(=O)Nc1c(C(=N)C#N)ncn1CCO | > 100 µM | > 100 µM | > 100 µM | > 100 µM | > 100 | > 100 | > 100 µM | > 100 | > 100 µM | > 100 µM | > 100 | > 100 | – | – | – | – | – | – | –
13 | O=C(Cn1c2ccc(Br)cc2c2nc3ccccc3nc21)NNC(=S)NC1CCCCC1 | 27.6 µM | 45.8 µM | 27.8 µM | 24.9 µM | 39.5 | 27.1 | 30.4 µM | 28.3 | 24 µM | 33.8 µM | 41.2 | 25.4 | – | – | – | – | – | – | –
14 | O=C1/C(=C\c2cccc(Oc3ccccc3)c2)S(=O)(=O)C(c2ccccc2)N1c1cccc(Cl)c1 (centres undefined) | > 100 µM | > 100 µM | 69.4 µM | > 100 µM | > 100 | > 100 | > 100 µM | > 100 | > 100 µM | > 100 µM | > 100 | > 100 | – | – | – | – | – | – | –
15 | CCOC(=O)CCC(NC(=O)OCc1ccccc1)C(=O)NC(CCC(=O)OCC)C(=O)OCC (centres undefined) (Cbz-Glu(OEt)-Glu(OEt)-OEt; configuration not given here) | > 100 µM | > 100 µM | > 100 µM | > 100 µM | > 100 | > 100 | > 100 µM | > 100 | > 100 µM | > 100 µM | > 100 | > 100 | – | – | – | – | – | – | –
16 | NCCCN(CCCN)CCc1cn(C(=O)c2ccccc2)cn1 | 64.9 µM | 16.8 µM | 56.3 µM | 39 µM | 33.8 | 13.2 | 40.5 µM | 30.1 | 21.5 µM | 33.6 µM | 15.3 | 27.1 | – | – | – | – | – | – | –
17 | CN1CCCOC(c2ccc(Cl)cc2)O1 (centres undefined) | > 100 µM | > 100 µM | > 100 µM | > 100 µM | > 100 | > 100 | > 100 µM | > 100 | > 100 µM | > 100 µM | > 100 | > 100 | – | – | – | – | – | – | –
18 | O=C1CC(=O)NC(=NN2C(=O)/C(=C/c3ccc(Cl)c(Cl)c3)N=C2c2ccccc2)N1 | 86 µM | > 100 µM | 94.9 µM | 74.9 µM | > 100 | 89.8 | 90.7 µM | 90.4 | 72.7 µM | – | > 100 | > 100 | – | – | – | – | – | – | –
